According to patent US8710021B2, “Inhibition of HRP-3 using modified oligonucleotides” (Bionucleon S.r.l., priority 2008, dated 2014):
Entries after “also recorded” stand apart in the source; their conditions may differ.

Columns and labels:
GI-LI-N cells = conditions: 48 h
soluble HRP-3 = soluble HRP-3 (Homo sapiens, UniProt Q9Y3E1); assay: In vitro anti-angiogenic activity (data not shown); format: cell-based
[1] = Acute toxicity in vivo in CD-1 female mice; conditions: 3, 10 and 30 mg/kg i.v. or i.p.
Protocol: We have evaluated in vivo the acute toxicity of BN210. 30 CD-1 female mice (Charles River Italia s.r.l., Via Indipendenza, 11-23885 CALCO (Lecco)), weighing 21.8-22.9 g, were divided in 6 groups, each of 5 animals, and housed in Makrolon cages (type III) at a room temperature of 22±3° C. and at a relative humidity of 55±15%. Air changes were 180-220/hour. Three doses of BN210, dissolved in phosphate buffered saline, were tested: 3, 10 and 30 mg/kg given intravenously (i.v., via the tail vain) or intraperitoneally (i.p.). BN210 concentrations in the formulates were 0.155, 0.517 and 1.551 mg/ml, respectively. Mice were observed daily, twice/day, for the appearance of toxicity signs during the 14 days following drug administration. The parameters commonly checked in the Irvin test were taken into consideration. […] After 14 days of observation, all mice were sacrificed and dissected for gross pathology examination. Any sign or pathological alterations were the subject of close scrutiny during the necropsy.

HRP-3 [2] = biological target: T1, HRP-3 (Homo sapiens, UniProt Q9Y3E1); assay: HRP-3 induced sprouting of HUVEC blocked by single strand oligonucleotides; format: cell-based; conditions: recombinant HRP-3 plus synthetic oligo
T1 construct: The HRP-3 coding region was cloned into the pET30 vector using EcoRI and NdeI as restriction sites; made in house; host or cells: E. coli BL21
Text: We tried to twice block the protein effect of human endothelial cells sprouting with a modified single strand oligonucleotides. In samples with recombinant protein, and synthetic oligos, SEQ ID NO. 16, 17, and 18 the number of sprouted spheroids was reduced as compared to samples with recombinant protein (FIG. 19).

HUVEC cells [3] = assay: HUVEC sprouting test; format: cell-based, human
Protocol: (§1) While no effects on the proliferation on BAEC and HUVEC cells were found, HRP-3 is able to induce HUVEC sprouting after 24 hours of stimulation. As shown in FIGS. 3 and 4 the HRP-3 can induce sprouting in HUVEC cells in a dose dependent manner. In FIG. 4 we have shown the negative control and the positive control with VEGF at 60 ng/ml. […] To be sure of ours results, experiments have been made in blind too.
Furthermore to confirm VEGF-independent angiogenic activity we performed another sprouting test with Avastin, anti-VEGF antibody in presence of VEGF and our protein.

HRP-3 [4] = biological target: T1, HRP-3; assay: 3T3 migration in vitro assay: prevention of HRP-3 function by DNA duplexes; format: cell-based, mouse
Protocol: All the four DNA duplexes were tested in our 3T3 migration in vitro assay to see if they were able to prevent HRP-3 function by binding its PWWP domain (FIG. 13). […] The third column on the left is the negative control.

3T3 cells [5] = assay: 3T3 anchorage independent growth; format: cell-based, mouse
BAEC = assay: Proliferation of endothelial primary cells (BAEC); format: cell-based
Protocol: as §1

HUVEC cells [6] = assay: mRNA expression in HUVEC by Real Time PCR; format: cell-based, human
Text: To understand the molecular basis of this stimulation, we studied mRNA expression of HRP-3 in HUVEC cell line by Real Time PCR. […] To understand if VEGF or VEGFR-2 was involved with the HRP-3 induced mechanism, we stimulated HUVEC cells with our HRP-3 and investigated mRNA levels of VEGF, VEGFR-2, HRP-3 and HDGF. The expression of those genes is not changed by HRP-3, FIGS. 5 and 6.

[7] = tested on: SH-SY5 neuroblastoma cells; assay: Proliferation assay of SH-SY5 cells; format: cell-based, human; conditions: 100 ng/mL HRP-3, 24 and 48 h
Protocol: Angiogenesis plays a key role during neural differentiation, exerting a trophic activity on both neurons and glia. A variety of angiogenic factors have been identified so far to play an important role in the induction of angiogenesis in NBs, including vascular endothelial growth factor (VEGF). Proliferation assay of SH-SY5 and NCS-34 cells in presence of increasing amounts of the protein were performed. These assays allow the definition of a anti-proliferatory effect of the protein only on SHSY, which at 100 ng/mL is able to prevent 25% of the SH-SY5 proliferation induced at 24 and 48 h by 5% FBS.

3T3 cells [8] = assay: 3T3 proliferation assay; format: cell-based, mouse
Protocol: (§2) In analogy with the reported HDGF activity on NIH 3T3 fibroblast, we decided to test the HRP-3 activity on these cells to develop a test able to report any interfering activity by a ligand able to bind the PWWP domain. Migration and proliferation assay of 3T3 cells in presence of increasing amounts of the protein were performed. These assays allow the definition of a strong anti-migratory effect of the HRP-3 protein, which at 30 ng/mL is able to prevent 50% of the 3T3 migration induced at 24 h by 5% FBS. This test was validated and is currently well reproducible, FIG. 2.

HUVEC [9] = assay: HUVEC migration assay in presence of increasing amounts of HRP-3; format: cell-based, human; conditions: 100 ng/ml HRP-3, 5 and 16 h
Protocol: Migration assay of HUVEC in presence of increasing amounts of the protein was performed (FIG. 9). These assay allows the definition of a anti-migratory effect of the protein on human endothelial cells in a dose-dependent manner, which at 100 ng/ml is able to prevent about 80% of the migration induced at 5 and 16 h by 5% FBS.

HUVEC [10] = assay: Tube formation assay in Matrigel; format: cell-based, human; conditions: after 24 hours, preliminary result
NIH 3T3 fibroblasts = assay: 3T3 migration assay in presence of increasing amounts of HRP-3; format: cell-based, mouse; conditions: 30 ng/mL HRP-3, 24 h
Protocol: as §2

HUVEC [11] = assay: Proliferation of endothelial primary cells (HUVEC); format: cell-based, human
Protocol: as §1

[12] = tested on: GI-LI-N neuroblastoma xenograft; assay: Orthotopic neuroblastoma (GI-LI-N) xenograft survival in nude mice; format: in vivo; conditions: VCR 1 mg/kg i.v. once a week for 5 weeks
Protocol: Mice were housed under specific pathogen-free conditions. The in vivo experiment was performed using five week old female athymic (Nude-nu) mice. Mice were anaesthetized with a mixture of xylazine (10 mg/kg) and ketamine (90 mg/kg) (Imalgene 1000, Merial Italia S.p.A., Milan, Italy), subjected to laparatomy, and orthotopically injected with the neuroblastoma (NB) cell line, GI-LI-N (1.5×10^6 cells in 10 μL of saline solution/mouse), in the capsule of the left adrenal gland, as previously reported (Pastorino F. et al., Cancer Res 63, 2003; Pastorino F. et al., Clin Cancer Res 2008). No mortality was observed following tumour cells implantation. NB tumours were allowed to grow from the injected cells for 22 days, then animals were randomly divided in 3 groups. One group was treated i.v., once a week for 5 weeks, with 1 mg/kg of vincristine (VCR, 5 administration in total). A second group of animals was treated with a combination of VCR (i.v. injection of 1 mg/kg, once a week for 5 weeks, 5 administration in total) and BN210 (i.p. injection of 7 mg/kg, 5 days/week, 20 administrations in total). Negative control mice were treated with HEPES-buffered saline. The significance of the differences between experimental groups (n=8 mice/group) in the survival experiments was determined by Kaplan-Meier curves by the use of Chi square log-rank test. […]

T1 sequence (Q9Y3E1 whole entry): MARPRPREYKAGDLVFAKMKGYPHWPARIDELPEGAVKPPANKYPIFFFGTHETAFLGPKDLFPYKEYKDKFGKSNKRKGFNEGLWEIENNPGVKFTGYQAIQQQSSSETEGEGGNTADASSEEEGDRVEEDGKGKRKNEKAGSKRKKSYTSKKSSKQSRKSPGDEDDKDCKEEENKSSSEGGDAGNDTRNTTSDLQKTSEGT
Sequence of soluble HRP-3 (Q9Y3E1 whole entry): as above

Molecule: 5′-PEG (40 KDa)-(NH)-T*AC AACACCCACAAAAAAUTTGTGGGTGTT GTiA-3' (BTACAACACCCACAAAAAAUTTGTGGGTGTTGTA; 5'-PEG 40 kDa amino linker, 3' inverted nucleotide, hairpin, further chemistry not given here) [BN210]
- effect of addition on vincristine treatment (GI-LI-N cells; 250 nM BN210 with vincristine 0.15 to 5 nM): did not enhance or inhibit
- anti-angiogenic activity in vitro (soluble HRP-3): anti-angiogenic activity
- clinical or behavioural signs of toxicity ([1]; 14 days observation): no signs of clinical or behavioural alterations
- gross pathology at necropsy ([1]; after 14 days): No macroscopic signs or pathological changes

Molecule: 5′-TACAACACCCACAAAAAATTTGTGGGTGTTGTA-3' (TACAACACCCACAAAAAATTTGTGGGTGTTGTA; DNA, backbone and methylation of C not given here) [SEQ ID NO. 16]
- number of sprouted HUVEC spheroids versus recombinant protein alone (HRP-3 [2]): can block; also recorded: reduced

Molecule: Avastin: anti-VEGF antibody
- effect on VEGF-mediated HUVEC sprouting (HUVEC cells [3]; in presence of VEGF): blocks HUVEC sprouting VEGF-mediated

Molecule: 5′-UACAACACCCACAAAAAAUUUGUGGGUGUUGUA-3' (2'-OMe) (UACAACACCCACAAAAAAUUUGUGGGUGUUGUA; all 2'-O-methyl, backbone not given here) [SEQ ID NO. 17]
- number of sprouted HUVEC spheroids versus recombinant protein alone (HRP-3 [2]): reduced

Molecule: Duplex 2: derived DNA double strand with base changes versus Duplex 1, to test importance of sequence for binding (chain 1 TACAACATTCACAAA; chain 2 TTTGTGAATGTTGTA; chain 1: DNA, backbone and methylation of C not given here; chain 2: DNA, backbone not given here)
- activity in abolishing the anti-migratory effect of HRP-3 on 3T3 cells (HRP-3 [4]): modest activity

Molecule: Duplex 4: derived DNA double strand with base changes versus Duplex 1, to test importance of sequence for binding (chain 1 CACACACACACACAC; chain 2 GTGTGTGTGTGTGTG; chain 1: DNA, backbone and methylation of C not given here; chain 2: DNA, backbone not given here)
- activity in abolishing the anti-migratory effect of HRP-3 on 3T3 cells (HRP-3 [4]): no activity

Molecule: HRP-3: recombinant HDGF Related Protein 3 with PWWP domain, cDNA from human cells, produced in E. Coli
- concentration that blocks 3T3 anchorage independent growth (3T3 cells [5]): 0.1 ng/mL
- effect on proliferation of BAEC (BAEC): no effects
- mRNA levels of VEGF, VEGFR-2, HRP-3 and HDGF after HRP-3 stimulation (HUVEC cells [6]; HUVEC stimulated with HRP-3): not changed
- prevention of SH-SY5 proliferation induced by 5% FBS [7]: 25%
- concentration that blocks 3T3 proliferation (3T3 cells [8]): 0.1 ng/mL
- prevention of HUVEC migration induced by 5% FBS (HUVEC [9]): about 80%
- concentration stimulating sprouting on HUVEC cells (HUVEC cells [3]; 24 hours of stimulation): above 100 ng/ml
- vessel-like network of HUVEC in tube formation assay (HUVEC [10]): able to maintain vessel-like network of HUVEC
- prevention of 3T3 migration induced by 5% FBS (NIH 3T3 fibroblasts): 50%
- effect on proliferation of HUVEC (HUVEC [11]): no effects

Molecule: VEGF
- HRP-3 mRNA levels after VEGF treatment (HUVEC cells [6]; HUVEC treated with 60 ng/ml VEGF, versus negative control): no significant difference

Molecule: 5′-TAC AAC ACC CAC AAA-[CH2CH2O]5-TTT GTG GGT GTT GTA-[CH2CH2O]5H-3' (TACAACACCCACAAABTTTGTGGGTGTTGTAB; PEG5 spacers, chemistry not fully specified) [SEQ ID NO. 18]
- number of sprouted HUVEC spheroids versus recombinant protein alone (HRP-3 [2]): reduced

Molecule: Duplex 3: derived DNA double strand designed to test different molecular shapes (chain 1 TACAACAAACCCACAAA; chain 2 TTTGTGGGTGTTGTA; chain 1: DNA, backbone and methylation of C not given here; chain 2: DNA, backbone not given here)
- activity in abolishing the anti-migratory effect of HRP-3 on 3T3 cells (HRP-3 [4]): no activity

Molecule: CC[C@]1(O)C[C@H]2CN(CCc3c([nH]c4ccccc34)[C@@](C(=O)OC)(c3cc4c(cc3OC)N(C=O)[C@H]3[C@@](O)(C(=O)OC)[C@H](OC(C)=O)[C@]5(CC)C=CCN6CC[C@]43[C@@H]65)C2)C1 [vincristine, reference compound]
- life span compared to negative control mice [12]: did not show any increase of their life span
- concentration inhibiting proliferation of GI-LI-N cells (GI-LI-N cells; MTT): 2.5 to 5 nM
